Results: patent US10550094B2, “Compounds having antioxidant activity against free radicals and anti-inflammatory activity, and corresponding pharmaceutical or cosmetic compositions for skin care” (GIULIANI S.P.A., priority 2015, dated 2020)

Test: HORAC Hydroxyl radical antioxidant capacity assay
Source text: HORAC Assay: Hydroxyl Antioxidant Capacity In Vitro
The commercial kit “Oxiselect Hydroxyl Radical Antioxidant Capacity (HORAC) activity assay” (Cell Biolabs).
The HORAC assay esxpresses the compound antiradical capacity towards the hydroxyl radical OH′ and is based on the oxidation of a fluorescent probe by hydroxyl radicals through a hydrogen transfer process (HAT). Hydroxyl radicals are produced by a radical initiator hydroxyl and by Fenton's reagent, which quenches the fluorescent probe over time. The antioxidants present in the sample block the oxidation by the hydroxyl radical of the fluorescent probe until the antioxidant activity in the sample runs out. The remaining hydroxyl radicals destroy the fluorescence of the fluorescent probe. The antioxidant capacity of the sample is related to the fluorescence decay curve, which usually is represented as the area under the curve (AUC). The AUC is used to quantify the total antioxidant activity of the hydroxyl radical in a sample and is compared to the curve of an antioxidant standard.
The compounds of the invention were tested at the following concentrations: 13.5 μM; 27 μM, 13.5 mM; 27 mM.
For comparison purposes, also samples of the compound monofurfurylidene-2.4-sorbitol defined below by the acronym ARGB11, were in this case tested under the same two concentrations, as a reference compound according to EP0345362 mentioned above as the background art of substances with free radical inhibition activity.

Structure (SMILES): OC[C@@H](O)[C@H]1OC(c2ccco2)O[C@@H](CO)[C@H]1O (stereo partly shown) [ARGB11, monofurfurylidene-2.4-sorbitol, reference compound]
- HORAC (Hydroxyl Radical Antioxidant Capacity) (13.5 μM): 31.04 μMole GAE/L
- HORAC (Hydroxyl Radical Antioxidant Capacity) (27 μM): 40.110 μMole GAE/L
- HORAC (Hydroxyl Radical Antioxidant Capacity) (13.5 mM): 308.497 μMole GAE/L
- HORAC (Hydroxyl Radical Antioxidant Capacity) (27 mM): 408.795 μMole GAE/L
